Measurements reported in patent US4395403A, “Polypeptides, processes for their production, pharmaceutical compositions comprising said polypeptides and their use” (Sandoz Ltd., priority 1979, dated 1983).

Legend:
gastric secretion = test: TEST II: inhibition of pentagastrin-stimulated gastric secretion in pylorus-ligated rats; assay type: in vivo, rat; details: i.m., 100 μg/kg pentagastrin s.c., 30 mins
Description: Male rats (220-280 g) are kept in the laboratory in individual cages for several days (14 hours light/day) with 48 hours fasting (but free access to water) immediately prior to the experiment. At start of the experiment the pylorus is ligated under ether anaesthesia and 100 μg/kg pentagastrin are injected s.c. to stimulate gastric secretion. The test compounds are injected simultaneously i.m. 30 mins. later the animals are sacrificed, the volume of gastric juice measured and the acid concentration estimated (titration with thymol blue). The acid output is calculated and the percent inhibition estimated in relation to untreated controls.
Polypeptides in accordance with the invention are active in this test when administered at a dosage in the range of from 0.01 to 100 μg/kg i.m.

[1] = test system: GH-secretion (serum GH-level); test: TEST I: depression of serum GH-levels in the rat (GH-secretion inhibition); assay type: in vivo; details: male rats under Nembutal narcosis, 15 minutes after administration
Description: This test (TEST I) is carried out employing male rats under Nembutal narcosis. The test-substance is administered at varying, logarithmically staggered doses employing at least 4 rats per dose. The rats are decapitated 15 minutes after administration, the blood is collected and the serum GH-level determined by radio-immuno-assay.
Polypeptides in accordance with the invention are active in this test when administered at a dosage in the range of from 0.01 to 100 μg/kg i.v. or i.m.

Row | SMILES | ID50 in TEST II for acid concentration (gastric secretion) | ID50 in TEST II for gastric juice content (gastric secretion) | ID50 in TEST I (amount required to effect 50% inhibition of serum GH-level compared with untreated controls) ([1]; i.m.) | ID50 in TEST I (amount required to effect 50% inhibition of serum GH-level compared with untreated controls) ([1]; i.v.)
1 | C[C@@H](O)[C@@H]1NC(=O)[C@H](CCCCN)NC(=O)[C@@H](Cc2c[nH]c3ccccc23)NC(=O)[C@H](Cc2ccccc2)NC(=O)[C@@H](NC(=O)[C@H](N)Cc2ccccc2)CSSC[C@@H](C(=O)N[C@H](CO)[C@@H](C)O)NC1=O [Example 1] | 0.0004 mg/kg | 0.0007 mg/kg |  | 
2 | C[C@H](N)C(=O)NCC(=O)N[C@H]1CSSC[C@@H](C(=O)O)NC(=O)[C@H](CO)NC(=O)[C@H]([C@@H](C)O)NC(=O)[C@H](Cc2ccccc2)NC(=O)[C@H]([C@@H](C)O)NC(=O)[C@H](CCCCN)NC(=O)[C@H](Cc2c[nH]c3ccccc23)NC(=O)[C@H](Cc2ccccc2)NC(=O)[C@H](Cc2ccccc2)NC(=O)[C@H](CC(N)=O)NC(=O)[C@H](CCCCN)NC1=O [somatostatin] | 0.035 mg/kg | 0.055 mg/kg | 0.0056 mg/kg | 0.062 mg/kg
